We go through 50 compounds from patent US11078168B2, “Substituted N-hydroxyamidinoheterocycles as modulators of indoleamine 2,3-dioxygenase” (PHENEX DISCOVERY VERWALTUNGS-GMBH, priority 2016, dated 2021).

pIC50: −log10 of the molar value.

For this test, the target named is T1, Indoleamine 2,3-dioxygenase (Homo sapiens, UniProt P14902).
T1 construct: endogenous in cells; host or cells: SKOV-3 (ATCC HTB-77), stimulated with interferon gamma
T1 sequence (P14902 whole entry): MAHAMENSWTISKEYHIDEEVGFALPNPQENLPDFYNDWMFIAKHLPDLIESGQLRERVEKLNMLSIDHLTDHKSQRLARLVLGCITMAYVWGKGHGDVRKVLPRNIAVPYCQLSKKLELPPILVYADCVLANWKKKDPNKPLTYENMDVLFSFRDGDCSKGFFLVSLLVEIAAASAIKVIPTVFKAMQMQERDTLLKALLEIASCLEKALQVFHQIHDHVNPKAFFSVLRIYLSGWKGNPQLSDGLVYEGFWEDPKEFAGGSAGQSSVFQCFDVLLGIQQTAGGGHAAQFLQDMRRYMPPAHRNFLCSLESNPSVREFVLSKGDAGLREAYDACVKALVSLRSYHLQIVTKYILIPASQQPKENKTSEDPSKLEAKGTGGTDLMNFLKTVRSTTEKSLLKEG
In words: SKOV-3 cellular Indoleamine 2,3-dioxygenase assay. The settings on record: SKOV-3 cells, 50 ng/ml Interferon gamma, 100 μM L-Tryptophan, 24 hours, N-Formylkynurenin fluorescence detection; read-out: cell based activity. Here is the method:
SKOV-3 cellular Indoleamine 2,3-dioxygenase assay
SKOV-3 cells were obtained from the American Type Culture Collection (ATCC® HTB-77™) and maintained in McCoy's medium (Pan Biotech) supplemented with 10% fetal bovine serum and 1% Penicilin/Streptomycin. Cells were kept at 37° C. in a humidified incubator with 5% CO2. For assay preparation, cells were seeded at a density of 2*10^5/ml into black clear bottom 96 well plates in 100 μl medium/well supplemented with 50 ng/ml Interferon gamma (eBioscience, Thermo Fisher Scientific). After cells fully adhered to the plate, dilution series of compounds were added in medium containing additional L-Tryptophan to a final L-Tryptophan concentration of 100 μM. The cells were incubated for 24 hours. Detection of produced N-Formylkynurenin was performed by addition of 3-Methylpiperidine to a final concentration of 200 mM. The plates were sealed and heated to 65° C. for 20 minutes in a water bath. After cooling the fluorescence of each well was recorded with a Victor™X4 (PerkinElmer) plate reader at an emission wavelength of 535 nm and excitation at 405 nm (Tomek et al.; Anal Bioanal Chem (2013) 405:2515-2524., Tomek et al.; Biochim Biophys Acta. 2015 September; 1850(9):1772-80).
In the case of `Cn1nc(C(=O)NCCSc2nonc2C(=NO)Nc2ccc(F)c(C(F)(F)F)c2)[nH]c1=O` [117/16], the pIC50 is more than 7.00.

`Cn1nc(C(=O)NCCSc2nonc2C(=NO)Nc2ccc(F)c(C(F)F)c2)[nH]c1=O` [117/17]: the pIC50 is 6.00 to 7.00.

Regarding `Cn1nc(C(=O)NCCSc2nonc2C(=NO)Nc2cccc(C(F)(F)F)c2)[nH]c1=O` [117/18], the pIC50 was 6.00 to 7.00.

As to `NS(=O)(=O)CC(=O)NCCSc1nonc1/C(=N/O)Nc1cccc(C(F)F)c1` [117/19], the pIC50 is more than 7.00.

For `CC(C)(C)OC(=O)NC1(CC(=O)NCCSc2nonc2C(=NO)Nc2ccc(F)c(C(F)F)c2)COC1` [117/20], the pIC50 is more than 7.00.

Turning to `NS(=O)(=O)C1(C(=O)NCCSc2nonc2C(=NO)Nc2ccc(F)c(C(F)F)c2)CC1` [117/21], the pIC50 is more than 7.00.

Regarding `NS(=O)(=O)CC(=O)NCCSc1nonc1C(=NO)Nc1cc(Br)c(F)cc1F` [117/22], the pIC50 was more than 7.00.

Consider `NS(=O)(=O)CC(=O)NCCSc1nonc1C(=NO)Nc1ccc(F)c(Br)c1F` [117/23], for which the pIC50 is more than 7.00.

For `NS(=O)(=O)CC(=O)NCCSc1nonc1C(=NO)Nc1cc(F)c(F)c(Br)c1` [117/24], the pIC50 is more than 7.00.

For `NC(=O)CC(=O)NCCSc1nonc1C(=NO)Nc1cccc(C(F)(F)F)c1` [119/1], the pIC50 was more than 7.00.

As for `NC(=O)CC(=O)NCCSc1nonc1C(=NO)Nc1cccc(C(F)F)c1` [119/2], the pIC50 was more than 7.00.

Consider `NC(=O)CS(=O)(=O)NCCSc1nonc1C(=NO)Nc1ccc(F)c(C(F)F)c1` [119/3], for which the pIC50 is more than 7.00.

For `NC(=O)CS(=O)(=O)NCCSc1nonc1C(=NO)Nc1cccc(C(F)F)c1` [119/4], the pIC50 is more than 7.00.

Regarding `NC(=O)CCS(=O)(=O)NCCSc1nonc1C(=NO)Nc1ccc(F)c(C(F)F)c1` [119/5], the pIC50 was more than 7.00.

Take `NC(=O)CNS(=O)(=O)NCCSc1nonc1C(=NO)Nc1ccc(F)c(C(F)F)c1` [119/6]: the pIC50 is more than 7.00.

Turning to `CS(=N)(=O)NCCSc1nonc1C(=NO)Nc1ccc(F)c(C(F)F)c1` (centres unmarked) [120/1], the pIC50 was more than 7.00.

Turning to `O=C(NCCSc1nonc1C(=NO)Nc1ccc(F)c(C(F)(F)F)c1)C1(O)CNC1` [123/1], the pIC50 is 6.00 to 7.00.

In the case of `COC1(C(=O)NCCSc2nonc2C(=NO)Nc2ccc(F)c(C(F)F)c2)CNC1` [123/2], the pIC50 is more than 7.00.

Regarding `CC1(C(=O)NCCSc2nonc2/C(=N/O)Nc2ccc(F)c(C(F)F)c2)CCN1` (centres unmarked) [123/3], the pIC50 is more than 7.00.

For the compound `O=C(NCCSc1nonc1C(=NO)Nc1ccc(F)c(C(F)F)c1)C1CCN1` (centres unmarked) [123/4], the pIC50 is more than 7.00.

Take `CC1(C(=O)NCCSc2nonc2C(=NO)Nc2ccc(F)c(C(F)F)c2)CNC1` [123/5]: the pIC50 is more than 7.00.

Turning to `O=C(NCCSc1nonc1C(=NO)Nc1ccc(F)c(C(F)F)c1)C1(F)CNC1` [123/6], the pIC50 is more than 7.00.

For `NC(CC(=O)NCCSc1nonc1C(=NO)Nc1ccc(F)c(C(F)F)c1)C(F)(F)F` (centres unmarked) [123/7], the pIC50 was more than 7.00.

In the case of `CS(=N)(=O)CC(=O)NCCSc1nonc1C(=NO)Nc1ccc(F)c(C(F)F)c1` (centres unmarked) [127/1], the pIC50 is more than 7.00.

`CS(=N)(=O)CC(=O)NCCSc1nonc1C(=NO)Nc1ccc(F)c(C(F)(F)F)c1` (centres unmarked) [127/2]: the pIC50 is more than 7.00.

In the case of `CS(=N)(=O)CC(=O)NCCSc1nonc1C(=NO)Nc1cccc(Cl)c1` (centres unmarked) [127/3], the pIC50 is more than 7.00.

In the case of `CS(=N)(=O)CC(=O)NCCSc1nonc1C(=NO)Nc1cccc(Br)c1` (centres unmarked) [127/4], the pIC50 was more than 7.00.

Regarding `NS(=O)(=O)NCC(=O)NCCSc1nonc1C(=NO)Nc1ccc(F)c(C(F)(F)F)c1` [128/1], the pIC50 is more than 7.00.

With `CS(=O)(=O)NCC(=O)NCCSc1nonc1C(=NO)Nc1ccc(F)c(C(F)F)c1` [128/2], the pIC50 is more than 7.00.

For the compound `CC(=O)N1CC(O)(C(=O)NCCSc2nonc2C(=NO)Nc2ccc(F)c(C(F)F)c2)C1` [128/3], the pIC50 was more than 7.00.

In the case of `NC(=O)N1CC(O)(C(=O)NCCSc2nonc2C(=NO)Nc2ccc(F)c(C(F)F)c2)C1` [128/4], the pIC50 was 6.00 to 7.00.

Regarding `CS(=O)(=O)N1CC(O)(C(=O)NCCSc2nonc2C(=NO)Nc2ccc(F)c(C(F)F)c2)C1` [128/5], the pIC50 is more than 7.00.

In the case of `NS(=O)(=O)N1CC(O)(C(=O)NCCSc2nonc2C(=NO)Nc2ccc(F)c(C(F)F)c2)C1` [128/6], the pIC50 was more than 7.00.

Regarding `NS(=O)(=O)N1CC(C(=O)NCCSc2nonc2C(=NO)Nc2ccc(F)c(C(F)F)c2)C1` [128/7], the pIC50 is more than 7.00.

Take `CS(=O)(=O)NCCOc1nonc1/C(=N/O)Nc1ccc(F)c(Br)c1` [Example 1, N-(3-Bromo-4-fluorophenyl)-N′-hydroxy-4-(2-(methylsulfonamido)ethoxy)-1,2,5-oxadiazole-3-carboximidamide]: the pIC50 was more than 7.00.

As to `Nc1c(NCCOc2nonc2C(=NO)Nc2ccc(F)c(Cl)c2)c(=O)c1=O` [Example 2, 4-(2-((2-Amino-3,4-dioxocyclobut-1-en-1-yl)amino)ethoxy)-N-(3-chloro-4-fluorophenyl)-N′-hydroxy-1,2,5-oxadiazole-3-carboximidamide], the pIC50 is more than 7.00.

Turning to `O=C(NCCOc1nonc1C(=NO)Nc1ccc(F)c(Cl)c1)C1COCCN1` (centres unmarked) [Example 3, N-(2-((4-(N-(3-Chloro-4-fluorophenyl)-N′-hydroxycarbamimidoyl)-1,2,5-oxadiazol-3-yl)oxy)ethyl)morpholine-3-carboxamide], the pIC50 was 6.00 to 7.00.

As to `NC(=O)C(=O)NCCOc1nonc1C(=NO)Nc1ccc(F)c(Cl)c1` [Example 4, N^1-(2-((4-(N-(3-Chloro-4-fluorophenyl)-N′-hydroxycarbamimidoyl)-1,2,5-oxadiazol-3-yl)oxy)ethyl)oxalamide], the pIC50 was 6.00 to 7.00.

Regarding `NC(=O)NCCOc1nonc1C(=NO)Nc1ccc(F)c(Cl)c1` [Example 5, N-(3-Chloro-4-fluorophenyl)-N′-hydroxy-4-(2-ureidoethoxy)-1,2,5-oxadiazole-3-carboximidamide], the pIC50 was more than 7.00.

`NS(=O)(=O)NCCOc1nonc1/C(=N/O)Nc1ccc(F)c(Br)c1` [Example 6, N-(3-Bromo-4-fluorophenyl)-N′-hydroxy-4-(2-(sulfamoylamino)ethoxy)-1,2,5-oxadiazole-3-carboximidamide]: the pIC50 is more than 7.00.

For the compound `NC(=O)C1(C(=O)NCCOc2nonc2C(=NO)Nc2ccc(F)c(Cl)c2)CC1` [Example 7, N-(2-((4-(N-(3-chloro-4-fluorophenyl)-N′-hydroxycarbamimidoyl)-1,2,5-oxadiazol-3-yl)oxy)ethyl)cyclopropane-1,1-dicarboxamide], the pIC50 is more than 7.00.

For the compound `ON=C(Nc1ccc(F)c(Br)c1)c1nonc1OCc1ccccc1` [Example 8, 4-(Benzyloxy)-N-(3-bromo-4-fluorophenyl)-N′-hydroxy-1,2,5-oxadiazole-3-carboximidamide], the pIC50 is less than 6.00.

In the case of `O=C(NCCOc1nonc1C(=NO)Nc1ccc(F)c(Cl)c1)c1nnn[nH]1` [Example 9, N-(2-((4-(N-(3-chloro-4-fluorophenyl)-N′-hydroxycarbamimidoyl)-1,2,5-oxadiazol-3-yl)oxy)ethyl)-1H-tetrazole-5-carboxamide], the pIC50 is less than 6.00.

With `ON=C(Nc1ccc(F)c(Cl)c1)c1nonc1OCCN1CCOCC1` [Example 10, N-(3-Chloro-4-fluorophenyl)-N′-hydroxy-4-(2-morpholinoethoxy)-1,2,5-oxadiazole-3-carboximidamide], the pIC50 is 6.00 to 7.00.

As to `NC(=O)CCCOc1nonc1C(=NO)Nc1ccc(F)c(Cl)c1` [Example 11, 4-((4-(N-(3-Chloro-4-fluorophenyl)-N′-hydroxycarbamimidoyl)-1,2,5-oxadiazol-3-yl)oxy)butanamide], the pIC50 was 6.00 to 7.00.

Take `Cc1nnc(CCCOc2nonc2C(=NO)Nc2ccc(F)c(Cl)c2)[nH]1` [Example 12, N-(3-Chloro-4-fluorophenyl)-N′-hydroxy-4-(3-(5-methyl-4H-1,2,4-triazol-3-yl)propoxy)-1,2,5-oxadiazole-3-carboximidamide]: the pIC50 was 6.00 to 7.00.

With `O=C(O)CCOc1nonc1C(=NO)Nc1ccc(F)c(Cl)c1` [Example 13, 3-((4-(N-(3-Chloro-4-fluorophenyl)-N′-hydroxycarbamimidoyl)-1,2,5-oxadiazol-3-yl)oxy)propanoic acid], the pIC50 is less than 6.00.

In the case of `Cc1nnc(NCCOc2nonc2C(=NO)Nc2ccc(F)c(Cl)c2)o1` [Example 14, N-(3-Chloro-4-fluorophenyl)-N′-hydroxy-4-(2-((5-methyl-1,3,4-oxadiazol-2-yl)amino)ethoxy)-1,2,5-oxadiazole-3-carboximidamide], the pIC50 is 6.00 to 7.00.

For `Nc1nnc(NCCOc2nonc2C(=NO)Nc2ccc(F)c(Cl)c2)[nH]1` [Example 15, 4-(2-((5-Amino-4H-1,2,4-triazol-3-yl)amino)ethoxy)-N-(3-chloro-4-fluorophenyl)-N′-hydroxy-1,2,5-oxadiazole-3-carboximidamide], the pIC50 is 6.00 to 7.00.

Take `CC(CN)Oc1nonc1C(=NO)Nc1ccc(F)c(Cl)c1` (centres unmarked) [Example 17, 4-((1-Aminopropan-2-yl)oxy)-N-(3-chloro-4-fluorophenyl)-N′-hydroxy-1,2,5-oxadiazole-3-carboximidamide]: the pIC50 was 6.00 to 7.00.
